Measurements reported in patent US20170088851A1, “METHODS FOR IMPROVING ABIOTIC STRESS RESPONSE” (The Regents of the University of California, priority 2011, published 2017).
Peptide text beside a SMILES is read from it. * marks the point of attachment. Cbz = O=C(OCc1ccccc1)*

Experiments:
[1] = tested on: N-end rule pathway of targeted proteolysis (NERP); assay: In vitro protein stability, heterologous rabbit reticulocyte lysate assay (TNT T7 Coupled Reticulocyte Lysate system, anti-HA immunoblot); format: biochemical; settings: for effect on in vitro stability of Arabidopsis Group VII ERFs: HA-tagged ERFs in reticulocyte lysate, 100 μM MG132 or 1 mM dipeptides; for MC-GUS degradation in the presence of the inhibitor: MC-GUS produced in rabbit reticulocyte lysate
Method: Protein stability analyses. Full length cDNAs were PCR amplified from either Arabidopsis thaliana or Oryza sativa L. (cv. M202 (Sub1)). N-terminal mutations were introduced using a specific forward primer. For in vitro assays, cDNAs were cloned into a modified version of the pTNT vector (Promega) to produce C-terminal HA fusions. Stability assays were performed using the TNT T7 Coupled Reticulocyte Lysate system (Promega), essentially as described previously^23. For in vivo analysis of EIRE-HA proteins, cDNAs were cloned into pE2c, mobilized into pB2GW7 and transformed into Arabidopsis using the floral dip method. To Assess relative protein stability, equal amounts of total protein extracted from 7-day old T3 homozygous seedlings were analyzed by Western blot, and cDNA synthesized from total RNA was used as a template for semi-quantitative PCR.
In vitro analysis of protein stability: To generate Arabidopsis and rice protein-HA fusions driven by the T7 promoter, cDNAs were PCR amplified from Arabidopsis total cDNA or submerged rice cDNA (M202 (Sub1); as described^3 and ligated into a modified version of the pTNT […] expression vector (pTNT3xHA). N-terminal mutations were incorporated by changing the forward primer sequences accordingly (Table 1). Proteins were expressed in vitro using the TNT T7 Coupled Reticulocyte Lysate system (Promega) according to manufacturer's guidelines, using 500 ng plasmid template. Where appropriate, 100 μM MG132 or 1 mM dipeptides (arg-β-ala or ala-ala; Sigma-Aldrich) and […] Bestatin (Sigma-Aldrich) were added. Reactions were incubated at 30° C., and samples were taken at appropriate time points before mixing with protein loading dye to terminate protein synthesis. Equal amounts of each reaction were subjected to anti-HA immunoblot analysis.
Immunoblotting: Proteins resolved by SDS-PAGE were transferred to PVDF using a MiniTrans-Blot electrophoretic transfer cell (Bio-Rad). Membranes were probed with primary antibodies at the following titres: anti-HA (Sigma-Aldrich), 1:1000; anti-α-tubulin (Sigma-Aldrich), 1:5,000, or anti-ribosomal protein 5636, (1:5,000). HRP conjugated anti-mouse secondary antibody (Santa Cruz) was used at a titre of 1:10,000. Immunoblots were developed to film using ECL Western blotting substrate (Pierce). Alignment of MC-ERF proteins from Arabidopsis and Rice: Rice and Arabidopsis ERF proteins starting with the sequence MC- were aligned and phylogenetic relationships observed using CLUSTALW37.
We investigated the possibility that all Arabidopsis Group VII ERFs as well as rice SUB1A-1 were NERP substrates.

[2] = tested on: MC-GUS; assay: Western analysis of MC-GUS protein levels in seedlings treated with cPTIO; format: in vivo, Arabidopsis; settings: WT Col-0 seedlings treated with cPTIO
From the text: FIG. 14C Stability of MC-GUS in Col-0 is related to NO.

[3] = tested on: HRE2; assay: Western blot of HRE2 protein levels in vivo after cPTIO treatment; set-up: species or system Arabidopsis; settings: 35S CaMV promoter
From the text: FIG. 14D Stability of the physiological substrate HRE2 is controlled by NO. Western blot showing levels of HRE2 protein in-vivo (constitutive gene transcription produced from the 35S CaMV promoter).

[4] = tested on: maplA mutant seeds; assay: Seed sensitivity to ABA on germination in the presence of fumagillin; format: in vivo, Arabidopsis
From the text: FIG. 13B Proteins initiating MC control seed sensitivity to ABA.

In the case of `CC(C)C[C@@H](C=O)NC(=O)[C@H](CC(C)C)NC(=O)[C@H](CC(C)C)NC(=O)OCc1ccccc1` [MG132] (Cbz-Leu-Leu-Leu-aldehyde), the “effect on in vitro stability of Arabidopsis Group VII ERFs” value [1] is reported as “stability was enhanced” and the “MC-GUS degradation in the presence of the inhibitor” value [1] is reported as “not degraded”.
In the case of `CC1(C)N([O])C(c2ccc(C(=O)O)cc2)=[N+]([O-])C1(C)C` [cPTIO], the “effect on MC-GUS protein level” value [2] is reported as “MC-GUS protein accumulates” and the “effect on HRE2 protein level” value [3] is reported as “stabilises the protein”.
In the case of `CO[C@@H]1[C@H](OC(=O)/C=C/C=C/C=C/C=C/C(=O)O)CC[C@]2(CO2)[C@H]1[C@@]1(C)O[C@@H]1CC=C(C)C` [fumagillin], the “seed sensitivity to ABA when germinated in the presence of fumagillin” value [4] is reported as “hypersensitive to ABA”.
For Arg-Ala, the “effect on in vitro stability of Arabidopsis Group VII ERFs” value [1] was “stability was enhanced” and the “MC-GUS degradation in the presence of the inhibitor” value [1] was “not degraded”.
